Results reported in US10106534B2 (CELGENE QUANTICEL RESEARCH, INC., priority 2014, dated 2018).

What was measured:
[1] = target: JMJD3 (Homo sapiens, UniProt O15054); test: In vitro enzyme inhibition assay for JMJD3 activity (TR-FRET); assay type: biochemical
Procedure: This assay determines the ability of a test compound to inhibit JMJD3 demethylase activity.
The enzymatic assay of JMJD3 activity is based upon Time Resolved-Fluorescence Resonance Energy Transfer (TR-FRET) detection. […] Reaction product was determined quantitatively by TR-FRET after the addition of detection reagent Phycolink Streptavidin-allophycocyanin (Prozyme) and Europium-anti-di-methylated histone H3 lysine 27 (H3K27me2) antibody (PerkinElmer) in the presence of 5 mM EDTA in LANCE detection buffer (PerkinElmer) at a final concentration of 50 nM and 1 nM, respectively.
The reaction mixture was incubated at room temperature for 30 minutes, and terminated by the addition of 6 μL of 5 mM EDTA in LANCE detection buffer containing 100 nM Phycolink Streptavidin-allophycocyanin and 2 nM Europium-anti-H3K27me2 antibody.

[2] = system: KYSE-150 esophageal carcinoma cell line; test: In vitro cell-based assay: cellular proliferation via BrdU incorporation (ELISA); set-up: species or system human; conditions: Homo sapiens, KYSE-150, 168 hours compound incubation
In short: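 KYSE-150 cells (JMJD2C-amplified; SMAD4 and TP53 mutant), 2,000/well, were treated after overnight attachment with an 11-point series (100 μM to 2 nM) for 168 h. Proliferation was read by BrdU ELISA (2 h labelling, anti-BrdU-peroxidase, TMB, 450 nm) and IC50 fitted.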

[3] = target: JMJD2C (Homo sapiens (Human), UniProt Q9H3R0); test: In vitro enzyme inhibition assay for JMJD2C activity (TR-FRET); assay type: biochemical
JMJD2C, sequence (Q9H3R0 2-372): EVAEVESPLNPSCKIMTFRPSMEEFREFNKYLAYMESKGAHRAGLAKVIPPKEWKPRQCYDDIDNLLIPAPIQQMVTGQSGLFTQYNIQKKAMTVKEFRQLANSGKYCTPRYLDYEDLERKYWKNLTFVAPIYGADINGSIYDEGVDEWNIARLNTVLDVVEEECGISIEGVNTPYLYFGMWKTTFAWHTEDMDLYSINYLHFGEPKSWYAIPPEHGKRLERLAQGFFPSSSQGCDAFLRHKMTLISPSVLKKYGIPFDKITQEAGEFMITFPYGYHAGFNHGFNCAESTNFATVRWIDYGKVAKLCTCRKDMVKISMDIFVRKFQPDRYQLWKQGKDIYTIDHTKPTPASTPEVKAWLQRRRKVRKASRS
In short: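 Baculovirus JMJD2C (AA 2-372), 0.3 nM, with 300 nM biotin-H3K9me3 peptide and 2 μM α-ketoglutarate in HEPES pH 7.3 containing Fe(II) and ascorbate, 30 min at room temperature, 11-point dilutions. H3K9me2 product by TR-FRET (Eu-antibody/streptavidin-APC, 665/615 ratio); IC50 fitted.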

| IC50 [1] [µM] | IC50 [2] [µM] | IC50 [3] [µM] | SMILES |
| --- | --- | --- | --- |
| 1 to 10 | 0.1 to 1 | 0.1 to 1 | C#Cc1ccc(N(C)c2ccc3c(c2)OCC[C@H]3CNc2cnccc2C(=O)O)cc1 [Example 126, 3-({[(4R)-7-[(4-ethynylphenyl)(methyl)amino]-3,4-dihydro-2H-1-benzopyran-4-yl]methyl}amino)pyridine-4-carboxylic acid] |
| 1 to 10 | ≤ 0.1 | 0.1 to 1 | CN(c1ccc(C2CC2)cc1)c1ccc2c(c1)OCC[C@H]2CNc1cnccc1C(=O)O [Example 134, 3-({[(4R)-7-[(4-cyclopropylphenyl)(methyl)amino]-3,4-dihydro-2H-1-benzopyran-4-yl]methyl}amino)pyridine-4-carboxylic acid] |
| 1 to 10 | ≤ 0.1 | 0.1 to 1 | Cc1ccc(N(C)c2ccc3c(c2)CCC[C@H]3CNc2cnccc2C(=O)O)cc1 [Example 140, 3-({[(1R)-6-[methyl(4-methylphenyl)amino]-1,2,3,4-tetrahydronaphthalen-1-yl]methyl}amino)pyridine-4-carboxylic acid] |
| 1 to 10 | ≤ 0.1 | ≤ 0.1 | Cc1ccc(N(C)c2ccc3c(c2)OCC[C@H]3CNc2cnccc2C(=O)O)nc1 [Example 145, 3-({[(4R)-7-[methyl(5-methylpyridin-2-yl)amino]-3,4-dihydro-2H-1-benzopyran-4-yl]methyl}amino)pyridine-4-carboxylic acid] |
| 1 to 10 | ≤ 0.1 | 0.1 to 1 | CN(c1ccc2c(c1)OCC[C@H]2CNc1cnccc1C(=O)O)c1ccc(C2CC2)cn1 [Example 153, 3-({[(4R)-7-[(5-cyclopropylpyridin-2-yl)(methyl)amino]-3,4-dihydro-2H-1-benzopyran-4-yl]methyl}amino)pyridine-4-carboxylic acid] |
| 1 to 10 | ≤ 0.1 | 0.1 to 1 | CCc1ccc(N(C)c2ccc3c(c2)OCC[C@H]3CNc2cnccc2C(=O)O)cc1 [Example 154, 3-({[(4R)-7-[(4-ethylphenyl)(methyl)amino]-3,4-dihydro-2H-1-benzopyran-4-yl]methyl}amino)pyridine-4-carboxylic acid] |
| 1 to 10 | 0.1 to 1 | 0.1 to 1 | Cc1cnc(N(C)c2ccc3c(c2)CCC[C@H]3CNc2cnccc2C(=O)O)nc1 [Example 156, 3-({[(1R)-6-[methyl(5-methylpyrimidin-2-yl)amino]-1,2,3,4-tetrahydronaphthalen-1-yl]methyl}amino)pyridine-4-carboxylic acid] |
| 1 to 10 | ≤ 0.1 | 0.1 to 1 | CCc1ccc(N(C)c2ccc3c(c2)OCC[C@H]3CNc2cnccc2C(=O)O)nc1 [Example 157, 3-({[(4R)-7-[(5-ethylpyridin-2-yl)(methyl)amino]-3,4-dihydro-2H-1-benzopyran-4-yl]methyl}amino)pyridine-4-carboxylic acid] |
| 1 to 10 | 1 to 10 | 0.1 to 1 | CN(c1ccc2c(c1)CCC[C@H]2CNc1cnccc1C(=O)O)c1cnn(C)c1 [Example 159, 3-({[(1R)-6-[methyl(1-methyl-1H-pyrazol-4-yl)amino]-1,2,3,4-tetrahydronaphthalen-1-yl]methyl}amino)pyridine-4-carboxylic acid] |
| 1 to 10 | ≤ 0.1 | 0.1 to 1 | CN(C)c1ccc(N(C)c2ccc3c(c2)CCC[C@H]3CNc2cnccc2C(=O)O)cc1 [Example 160, 3-({[(1R)-6-{[4-(dimethylamino)phenyl](methyl)amino}-1,2,3,4-tetrahydronaphthalen-1-yl]methyl}amino)pyridine-4-carboxylic acid] |
| 1 to 10 | ≤ 0.1 | 0.1 to 1 | COCc1ccc(N(C)c2ccc3c(c2)CCC[C@H]3CNc2cnccc2C(=O)O)cc1 [Example 164, 3-({[(1R)-6-{[4-(methoxymethyl)phenyl](methyl)amino}-1,2,3,4-tetrahydronaphthalen-1-yl]methyl}amino)pyridine-4-carboxylic acid] |
